In patent US20250092039A1, “GLUTARIMIDE-CONTAINING PAN-KRAS-MUTANT DEGRADER COMPOUNDS AND USES THEREOF” (Tiger Biotherapeutics Inc., priority 2022, published 2025):

Tests used:
[1] = Pharmacokinetics following single intravenous and oral gavage dosing (AUC0-24h); type: in vivo; conditions: mouse, plasma; single oral dose 30 mg/Kg, male CD-1 mice
Procedure: Compounds disclosed herein were studied for animal tolerability and pharmacokinetics following single intravenous (iv) and oral gavage (po) dosing to male CD-1 mice. For each compound in each dosing route, 3 mice were used with iv dosing volume of 5 mL/kg and po dosing volume of 10 mL/kg. The compounds were formulated in 10% DMSO, 30% PEG400, 60% aqueous solution containing 20% 2-hydroxypropyl-β-cyclodextrin. Blood sampling time points for iv dosing were 0.083, 0.25, 0.5, 1, 2, 4, 8 and 24 h. The sampling time points for po dosing were 0.25, 0.5, 1, 2, 4, 6, 8 and 24 h. Mice activities were monitored and recorded immediately following the dosing. The prepared plasma samples were analyzed using LC/MS/MS on AB Sciex Triple Quad 5500+ system. The PK parameters were determined by non-compartmental analysis using WinNonlin (Version 8.0).

SW620 cells = experiment: 3D cell growth inhibition of SW620 cells carrying endogenous KRAS G12V mutation (CellTiter-Glo 3D, GI50); type: cell-based; conditions: Homo sapiens, SW-620, 144 h; SW620 cells, 6 days; read-out: SW620 3D cell growth GI50
Method in brief: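 […], compound exposure lasted 6 days at 37° C, added the day after plating from DMSO stocks over a concentration range. Cells: SW620, KRAS G12V, 3D culture.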

KRAS-G12V/RAF1 = KRAS-G12V/RAF1 (Homo sapiens (Human), UniProt P01116, G12V); experiment: KRAS/RAF1 binding inhibition assay (AlphaScreen)
Chain of KRAS-G12V/RAF1 (P01116-2 other isoform, or with tags, fused parts or gaps G12V): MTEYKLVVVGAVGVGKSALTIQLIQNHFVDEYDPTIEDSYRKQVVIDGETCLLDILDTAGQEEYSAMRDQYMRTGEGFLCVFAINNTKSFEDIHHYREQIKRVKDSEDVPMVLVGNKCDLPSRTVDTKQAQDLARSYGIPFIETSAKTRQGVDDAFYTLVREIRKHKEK
Method in brief: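 IC50 comes from variable-slope nonlinear fits of % inhibition (relative to DMSO) against inhibitor concentration. The AlphaScreen signal tracks the interaction of GppNHp-bound KRAS G12V with the RAF1 RBD after 60 min at 4° C with compound in 2% DMSO final.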

KRAS G12V = KRAS G12V (Homo sapiens (Human), UniProt P01116, G12V); experiment: KRAS G12V degradation in SW620 cells (Western blot, DC50); type: cell-based; conditions: 24 hours
Chain of KRAS G12V (P01116-2 other isoform, or with tags, fused parts or gaps G12V): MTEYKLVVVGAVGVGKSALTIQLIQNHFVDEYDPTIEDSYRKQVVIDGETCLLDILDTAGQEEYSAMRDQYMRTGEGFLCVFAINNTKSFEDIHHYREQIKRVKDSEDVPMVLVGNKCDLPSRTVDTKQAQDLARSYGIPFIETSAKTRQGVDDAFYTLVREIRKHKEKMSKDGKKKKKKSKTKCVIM
Method in brief: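 KRAS levels were quantified by fluorescent Western blot as percent of the DMSO control after 24 h of compound exposure at 37° C in homozygous KRAS G12V SW620 cells. A four-parameter variable-slope fit of the dose-response gave the half-maximal degradation concentration.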

Row | Structure (SMILES) | AUC(0-t) [1] [ng·h/mL] | IC50 (KRAS-G12V/RAF1) [nM] | DC50 (KRAS G12V; cell prints a figure, not a class symbol) [nM] | GI50 (SW620 cells) [nM] | DC50 (KRAS G12V) [nM]
1 | CCc1c(F)ccc2cc(O)cc(-c3ncc4c(N5CCCC6(CCO6)C5)nc(OCC5(CN6CCC(CN7CCN(c8ccc9c(c8)CN([C@H]8CCC(=O)NC8=O)C9=O)CC7)CC6)CC5)nc4c3F)c12 (stereo partly drawn) [Compound 23, (3S)-3-(5-(4-((1-((1-(((7-(8-ethyl-7-fluoro-3-hydroxynaphthalen-1-yl)-8-fluoro-4-(1-oxa-6-azaspiro[3.5]nonan-6-yl)pyrido[4,3-d]pyrimidin-2-yl)oxy)methyl)cyclopropyl)methyl)piperidin-4-yl)methyl)piperazin-1-yl)-1-oxoisoindolin-2-yl)piperidine-2,6-dione] | 783 | 20 to 200 |  | < 10 | 
2 | CCc1c(F)ccc2cc(O)cc(-c3ncc4c(N5CCC[C@@](C)(O)C5)nc(OCC5(CN6CCC7(CC6)CC(F)(CN6CCN(c8cc(F)c(C9CCC(=O)NC9=O)c(F)c8)CC6)C7)CC5)nc4c3F)c12 (stereo partly drawn) [Compound 46, 3-(4-(4-((7-((1-(((7-(8-ethyl-7-fluoro-3-hydroxynaphthalen-1-yl)-8-fluoro-4-((R)-3-hydroxy-3-methylpiperidin-1-yl)pyrido[4,3-d]pyrimidin-2-yl)oxy)methyl)cyclopropyl)methyl)-2-fluoro-7-azaspiro[3.5]nonan-2-yl)methyl)piperazin-1-yl)-2,6-difluorophenyl)piperidine-2,6-dione] | 9130 |  |  | < 10 | 1 to 10
3 | CCc1c(F)ccc2cc(O)cc(-c3ncc4c(N5CCC[C@@](C)(O)C5)nc(OCC5(CN6CCC(F)(CN7CCN(c8ccc9c(C%10CCC(=O)NC%10=O)nn(C)c9c8)CC7)CC6)CC5)nc4c3F)c12 (stereo partly drawn) [Compound 66, 3-(6-(4-((1-((1-(((7-(8-ethyl-7-fluoro-3-hydroxynaphthalen-1-yl)-8-fluoro-4-((R)-3-hydroxy-3-methylpiperidin-1-yl)pyrido[4,3-d]pyrimidin-2-yl)oxy)methyl)cyclopropyl)methyl)-4-fluoropiperidin-4-yl)methyl)piperazin-1-yl)-1-methyl-1H-indazol-3-yl)piperidine-2,6-dione] | 7420 |  |  |  | 
4 | CCc1c(F)ccc2cc(O)cc(-c3ncc4c(N5CCCC6(CCO6)C5)nc(OCC5(CN6CCC(CN7CCC(N8CCN(c9ccc%10c(c9)CN([C@H]9CCC(=O)NC9=O)C%10=O)CC8)CC7)CC6)CC5)nc4c3F)c12 (stereo partly drawn) [Compound 38, (3S)-3-(5-(4-(1-((1-((1-(((7-(8-ethyl-7-fluoro-3-hydroxynaphthalen-1-yl)-8-fluoro-4-(1-oxa-6-azaspiro[3.5]nonan-6-yl)pyrido[4,3-d]pyrimidin-2-yl)oxy)methyl)cyclopropyl)methyl)piperidin-4-yl)methyl)piperidin-4-yl)piperazin-1-yl)-1-oxoisoindolin-2-yl)piperidine-2,6-dione] | 170 |  |  | < 10 | 1 to 10

The next lines start with results.

Row | AUC(0-t) [1] [ng·h/mL] | IC50 (KRAS-G12V/RAF1) [nM] | DC50 (KRAS G12V; cell prints a figure, not a class symbol) [nM] | Structure (SMILES) | GI50 (SW620 cells) [nM] | DC50 (KRAS G12V) [nM]
5 | 11900 |  |  | CCc1c(F)ccc2cc(O)cc(-c3ncc4c(N5CCC[C@@](C)(O)C5)nc(OCC5(CN6CCC(F)(CN7CCN(c8ccc(C9CCC(=O)NC9=O)c(F)c8)CC7)CC6)CC5)nc4c3F)c12 (stereo partly drawn) [Compound 84, 3-(4-(4-((1-((1-(((7-(8-ethyl-7-fluoro-3-hydroxynaphthalen-1-yl)-8-fluoro-4-((R)-3-hydroxy-3-methylpiperidin-1-yl)pyrido[4,3-d]pyrimidin-2-yl)oxy)methyl)cyclopropyl)methyl)-4-fluoropiperidin-4-yl)methyl)piperazin-1-yl)-2-fluorophenyl)piperidine-2,6-dione] |  | 
6 | 10700 |  |  | CCc1c(F)ccc2cc(O)cc(-c3ncc4c(N5CCC[C@@](C)(O)C5)nc(OCC5(CN6CCC(F)(CN7CCN(c8cccc9c8n(C)c(=O)n9C8CCC(=O)NC8=O)CC7)CC6)CC5)nc4c3F)c12 (stereo partly drawn) [Compound 65, 3-(4-(4-((1-((1-(((7-(8-ethyl-7-fluoro-3-hydroxynaphthalen-1-yl)-8-fluoro-4-((R)-3-hydroxy-3-methylpiperidin-1-yl)pyrido[4,3-d]pyrimidin-2-yl)oxy)methyl)cyclopropyl)methyl)-4-fluoropiperidin-4-yl)methyl)piperazin-1-yl)-3-methyl-2-oxo-2,3-dihydro-1H-benzo[d]imidazol-1-yl)piperidine-2,6-dione] |  | 
7 |  | 20 to 200 |  | CCc1c(F)ccc2cc(O)cc(-c3ncc4c(N5CCC[C@@](C)(O)C5)nc(OCC5(CN6CCC(N7CCC8(CC7)CN(c7ccc9c(c7)CN(C7CCC(=O)NC7=O)C9=O)C8)CC6)CC5)nc4c3F)c12 (stereo partly drawn) [Compound 151, 3-(5-(7-(1-((1-(((7-(8-ethyl-7-fluoro-3-hydroxynaphthalen-1-yl)-8-fluoro-4-((R)-3-hydroxy-3-methylpiperidin-1-yl)pyrido[4,3-d]pyrimidin-2-yl)oxy)methyl)cyclopropyl)methyl)piperidin-4-yl)-2,7-diazaspiro[3.5]nonan-2-yl)-1-oxoisoindolin-2-yl)piperidine-2,6-dione] | < 10 | < 1
8 | 220 |  |  | CCc1c(F)ccc2cc(O)cc(-c3ncc4c(N5CCC[C@@](C)(O)C5)nc(OCC5(CN6CCC(CN7CCN(c8ccc9c(c8)CN([C@H]8CCC(=O)NC8=O)C9=O)CC7)CC6)CC5)nc4c3F)c12 [Compound 1, (S)-3-(5-(4-((1-((1-(((7-(8-ethyl-7-fluoro-3-hydroxynaphthalen-1-yl)-8-fluoro-4-((R)-3-hydroxy-3-methylpiperidin-1-yl)pyrido[4,3-d]pyrimidin-2-yl)oxy)methyl)cyclopropyl)methyl)piperidin-4-yl)methyl)piperazin-1-yl)-1-oxoisoindolin-2-yl)piperidine-2,6-dione] |  | 
9 |  | 20 to 200 |  | CCc1c(F)ccc2cc(O)cc(-c3ncc4c(N5CCC[C@@](C)(O)C5)nc(OCC5(CN6CC(N7CC(N8CCN(c9ccc%10c(c9)CN([C@H]9CCC(=O)NC9=O)C%10=O)CC8)C7)C6)CC5)nc4c3F)c12 [Compound 137, (S)-3-(5-(4-(1′-((1-(((7-(8-ethyl-7-fluoro-3-hydroxynaphthalen-1-yl)-8-fluoro-4-((R)-3-hydroxy-3-methylpiperidin-1-yl)pyrido[4,3-d]pyrimidin-2-yl)oxy)methyl)cyclopropyl)methyl)-[1,3′-biazetidin]-3-yl)piperazin-1-yl)-1-oxoisoindolin-2-yl)piperidine-2,6-dione] | < 10 | 1 to 10
10 |  | 20 to 200 | 2 | CCc1c(F)ccc2cc(O)cc(-c3ncc4c(N5CCOC[C@@](C)(O)C5)nc(OCC5(CN6CCC(CN7CCN(c8ccc9c(c8)CN([C@H]8CCC(=O)NC8=O)C9=O)CC7)CC6)CC5)nc4c3F)c12 [Compound 104, (3S)-3-[5-[4-[[1-[[1-[[7-(8-ethyl-7-fluoro-3-hydroxy-1-naphthyl)-8-fluoro-4-[(6S)-6-hydroxy-6-methyl-1,4-oxazepan-4-yl]pyrido[4,3-d]pyrimidin-2-yl]oxymethyl]cyclopropyl]methyl]-4-piperidyl]methyl]piperazin-1-yl]-1-oxo-isoindolin-2-yl]piperidine-2,6-dione] | < 10 | 
